Results taken from PMC6979384, “Characterization of the plant homeodomain (PHD) reader family for their histone tail interactions” (Epigenetics & Chromatin, 2020).

Key:
Assay in all cases: Histone peptide microarray
Type in all cases: binding, human
KDM5B (1) = details: each array performed twice, total n = 4; for Array Heatmap signal (histone peptide microarray): GST-tagged KDM5B (1), sheet Array Heatmap
Procedure, shortened: (§1)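 Purified PHD finger domains fused to GST are screened against 293 synthetic histone peptides bearing one or several post-translational modifications. The protein is used at 0.5 μM, and the signal from four replicate arrays is averaged, with standard deviation given.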

SP140L = details: each array performed twice, total n = 4; for Array Heatmap signal (histone peptide microarray): GST-tagged SP140L, sheet Array Heatmap
Procedure, shortened: as §1

DIDO1 = details: each array performed twice, total n = 4; for Array Heatmap signal (histone peptide microarray): GST-tagged DIDO1, sheet Array Heatmap
Procedure, shortened: as §1

KDM4C (TTP) = details: each array performed twice, total n = 4; for Array Heatmap signal (histone peptide microarray): GST-tagged KDM4C (TTP = Tandem Tudor domain + PHD), sheet Array Heatmap
Procedure, shortened: as §1

PHF2 = details: each array performed twice, total n = 4; for Array Heatmap signal (histone peptide microarray): GST-tagged PHF2, sheet Array Heatmap
Procedure, shortened: as §1

KDM5B (3) = details: each array performed twice, total n = 4; for Array Heatmap signal (histone peptide microarray): GST-tagged KDM5B (3), sheet Array Heatmap
Procedure, shortened: as §1

PHF21A = details: each array performed twice, total n = 4; for Array Heatmap signal (histone peptide microarray): GST-tagged PHF21A, sheet Array Heatmap
Procedure, shortened: as §1

CHD4 (PPCC) = details: each array performed twice, total n = 4; for Array Heatmap signal (histone peptide microarray): GST-tagged CHD4 (PPCC = Dual PHD + Dual Chromodomain), sheet Array Heatmap
Procedure, shortened: as §1

BAZ2B = details: each array performed twice, total n = 4; for Array Heatmap signal (histone peptide microarray): GST-tagged BAZ2B, sheet Array Heatmap
Procedure, shortened: as §1

KDM5A (1) = details: each array performed twice, total n = 4; for Array Heatmap signal (histone peptide microarray): GST-tagged KDM5A (1), sheet Array Heatmap
Procedure, shortened: as §1

PHF23 = details: each array performed twice, total n = 4; for Array Heatmap signal (histone peptide microarray): GST-tagged PHF23, sheet Array Heatmap
Procedure, shortened: as §1

MLL5 = details: each array performed twice, total n = 4; for Array Heatmap signal (histone peptide microarray): GST-tagged MLL5, sheet Array Heatmap
Procedure, shortened: as §1

TRIM66 (PB) = details: each array performed twice, total n = 4; for Array Heatmap signal (histone peptide microarray): GST-tagged TRIM66 (PB = PHD + Bromodomain), sheet Array Heatmap
Procedure, shortened: as §1

ING3 = details: each array performed twice, total n = 4; for Array Heatmap signal (histone peptide microarray): GST-tagged ING3, sheet Array Heatmap
Procedure, shortened: as §1

AIRE (PP) = details: each array performed twice, total n = 4; for Array Heatmap signal (histone peptide microarray): GST-tagged AIRE (PP), sheet Array Heatmap
Procedure, shortened: as §1

PHF8 = details: each array performed twice, total n = 4; for Array Heatmap signal (histone peptide microarray): GST-tagged PHF8, sheet Array Heatmap
Procedure, shortened: as §1

KDM5A (3) = details: each array performed twice, total n = 4; for Array Heatmap signal (histone peptide microarray): GST-tagged KDM5A (3), sheet Array Heatmap
Procedure, shortened: as §1

PHF13 = details: each array performed twice, total n = 4; for Array Heatmap signal (histone peptide microarray): GST-tagged PHF13, sheet Array Heatmap
Procedure, shortened: as §1

DPF2 (PPC2W2) = details: each array performed twice, total n = 4; for Array Heatmap signal (histone peptide microarray): GST-tagged DPF2 (PPC2W2 = Dual PHD + C2W2-type Zn-finger), sheet Array Heatmap
Procedure, shortened: as §1

RAG2 = details: each array performed twice, total n = 4; for Array Heatmap signal (histone peptide microarray): GST-tagged RAG2, sheet Array Heatmap
Procedure, shortened: as §1

BPTF (PB) = details: each array performed twice, total n = 4; for Array Heatmap signal (histone peptide microarray): GST-tagged BPTF (PB = PHD + Bromodomain), sheet Array Heatmap
Procedure, shortened: as §1

ING5 = details: each array performed twice, total n = 4; for Array Heatmap signal (histone peptide microarray): GST-tagged ING5, sheet Array Heatmap
Procedure, shortened: as §1

CHD5 (PPCC) = details: each array performed twice, total n = 4; for Array Heatmap signal (histone peptide microarray): GST-tagged CHD5 (PPCC = Dual PHD + Dual Chromodomain), sheet Array Heatmap
Procedure, shortened: as §1

ING1 = details: each array performed twice, total n = 4; for Array Heatmap signal (histone peptide microarray): GST-tagged ING1, sheet Array Heatmap
Procedure, shortened: as §1

ING4 = details: each array performed twice, total n = 4; for Array Heatmap signal (histone peptide microarray): GST-tagged ING4, sheet Array Heatmap
Procedure, shortened: as §1

PHRF1 (RP) = details: each array performed twice, total n = 4; for Array Heatmap signal (histone peptide microarray): GST-tagged PHRF1 (RP), sheet Array Heatmap
Procedure, shortened: as §1

ING2 = details: each array performed twice, total n = 4; for Array Heatmap signal (histone peptide microarray): GST-tagged ING2, sheet Array Heatmap
Procedure, shortened: as §1

CHD5 (PCC) = details: each array performed twice, total n = 4; for Array Heatmap signal (histone peptide microarray): GST-tagged CHD5 (PCC = PHD + Dual Chromodomain), sheet Array Heatmap
Procedure, shortened: as §1

KDM7A = details: each array performed twice, total n = 4; for Array Heatmap signal (histone peptide microarray): GST-tagged KDM7A, sheet Array Heatmap
Procedure, shortened: as §1

TAF3 = details: each array performed twice, total n = 4; for Array Heatmap signal (histone peptide microarray): GST-tagged TAF3, sheet Array Heatmap
Procedure, shortened: as §1

MORC3 (CW) = details: each array performed twice, total n = 4; for Array Heatmap signal (histone peptide microarray): GST-tagged MORC3 (CW = CW-type Zn-finger), sheet Array Heatmap
Procedure, shortened: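 GST-PHD reader, 0.5 μM, probed on 293-peptide histone array (single/combinatorial PTMs); optimized array protocol; signal = mean ± SD, n = 4.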

Substance: H3K4ac + K18ac: H3 1-20
- Array Heatmap signal (histone peptide microarray) (KDM5B (1)): 0.6733
- Array Heatmap signal (histone peptide microarray) (SP140L): 0.3275
- Array Heatmap signal (histone peptide microarray) (DIDO1): 0.6662
- Array Heatmap signal (histone peptide microarray) (KDM4C (TTP)): 0.5036
- Array Heatmap signal (histone peptide microarray) (PHF2): 0.5195
- Array Heatmap signal (histone peptide microarray) (KDM5B (3)): 0.551
- Array Heatmap signal (histone peptide microarray) (PHF21A): 0.4736
- Array Heatmap signal (histone peptide microarray) (CHD4 (PPCC)): 0.5623
- Array Heatmap signal (histone peptide microarray) (BAZ2B): 0.4765
- Array Heatmap signal (histone peptide microarray) (KDM5A (1)): 0.4894
- Array Heatmap signal (histone peptide microarray) (PHF23): 0.5594
- Array Heatmap signal (histone peptide microarray) (MLL5): 0.5346
- Array Heatmap signal (histone peptide microarray) (TRIM66 (PB)): 0.6289
- Array Heatmap signal (histone peptide microarray) (ING3): 0.5109
- Array Heatmap signal (histone peptide microarray) (AIRE (PP)): 0.4624
- Array Heatmap signal (histone peptide microarray) (PHF8): 0.356
- Array Heatmap signal (histone peptide microarray) (KDM5A (3)): 0.4876
- Array Heatmap signal (histone peptide microarray) (PHF13): 0.6219
- Array Heatmap signal (histone peptide microarray) (DPF2 (PPC2W2)): 0.6503
- Array Heatmap signal (histone peptide microarray) (RAG2): 0.291
- Array Heatmap signal (histone peptide microarray) (BPTF (PB)): 0.3724
- Array Heatmap signal (histone peptide microarray) (ING5): 0.347
- Array Heatmap signal (histone peptide microarray) (CHD5 (PPCC)): 0.5589
- Array Heatmap signal (histone peptide microarray) (ING1): 0.5001
- Array Heatmap signal (histone peptide microarray) (ING4): 0.455
- Array Heatmap signal (histone peptide microarray) (PHRF1 (RP)): 0.5224
- Array Heatmap signal (histone peptide microarray) (ING2): 0.6077
- Array Heatmap signal (histone peptide microarray) (CHD5 (PCC)): 0.8291
- Array Heatmap signal (histone peptide microarray) (KDM7A): 0.4179
- Array Heatmap signal (histone peptide microarray) (TAF3): 0.2831
- Array Heatmap signal (histone peptide microarray) (MORC3 (CW)): 0.4359

Substance: H3K4ac: H3 1-20 [Peptide H3K4ac]
- Array Heatmap signal (histone peptide microarray) (KDM5B (1)): 0.5705
- Array Heatmap signal (histone peptide microarray) (SP140L): 0.3065
- Array Heatmap signal (histone peptide microarray) (DIDO1): 0.6919
- Array Heatmap signal (histone peptide microarray) (KDM4C (TTP)): 0.4265
- Array Heatmap signal (histone peptide microarray) (PHF2): 0.603
- Array Heatmap signal (histone peptide microarray) (KDM5B (3)): 0.4727
- Array Heatmap signal (histone peptide microarray) (PHF21A): 0.424
- Array Heatmap signal (histone peptide microarray) (CHD4 (PPCC)): 0.511
- Array Heatmap signal (histone peptide microarray) (BAZ2B): 0.4282
- Array Heatmap signal (histone peptide microarray) (KDM5A (1)): 0.429
- Array Heatmap signal (histone peptide microarray) (PHF23): 0.5477
- Array Heatmap signal (histone peptide microarray) (MLL5): 0.5593
- Array Heatmap signal (histone peptide microarray) (TRIM66 (PB)): 0.5857
- Array Heatmap signal (histone peptide microarray) (ING3): 0.4516
- Array Heatmap signal (histone peptide microarray) (AIRE (PP)): 0.3833
- Array Heatmap signal (histone peptide microarray) (PHF8): 0.3449
- Array Heatmap signal (histone peptide microarray) (KDM5A (3)): 0.4174
- Array Heatmap signal (histone peptide microarray) (PHF13): 0.5951
- Array Heatmap signal (histone peptide microarray) (DPF2 (PPC2W2)): 0.663
- Array Heatmap signal (histone peptide microarray) (RAG2): 0.2316
- Array Heatmap signal (histone peptide microarray) (BPTF (PB)): 0.3314
- Array Heatmap signal (histone peptide microarray) (ING5): 0.3289
- Array Heatmap signal (histone peptide microarray) (CHD5 (PPCC)): 0.5057
- Array Heatmap signal (histone peptide microarray) (ING1): 0.5138
- Array Heatmap signal (histone peptide microarray) (ING4): 0.4245
- Array Heatmap signal (histone peptide microarray) (PHRF1 (RP)): 0.4419
- Array Heatmap signal (histone peptide microarray) (ING2): 0.6074
- Array Heatmap signal (histone peptide microarray) (CHD5 (PCC)): 0.7194
- Array Heatmap signal (histone peptide microarray) (KDM7A): 0.3036
- Array Heatmap signal (histone peptide microarray) (TAF3): 0.248
- Array Heatmap signal (histone peptide microarray) (MORC3 (CW)): 0.3459

Substance: H3K4me1 (1-21): H3 1-21
- Array Heatmap value (peptide array signal) (KDM5B (1); KDM5B (1), sheet "Array Heatmap"): 0.658
- Array Heatmap value (peptide array signal) (SP140L; SP140L, sheet "Array Heatmap"): 0.3636
- Array Heatmap value (peptide array signal) (DIDO1; DIDO1, sheet "Array Heatmap"): 0.6834
- Array Heatmap value (peptide array signal) (KDM4C (TTP); KDM4C (TTP), sheet "Array Heatmap"): 0.468
- Array Heatmap value (peptide array signal) (PHF2; PHF2, sheet "Array Heatmap"): 0.5317
- Array Heatmap value (peptide array signal) (KDM5B (3); KDM5B (3), sheet "Array Heatmap"): 0.4879
- Array Heatmap value (peptide array signal) (PHF21A; PHF21A, sheet "Array Heatmap"): 0.4499
- Array Heatmap value (peptide array signal) (CHD4 (PPCC); CHD4 (PPCC), sheet "Array Heatmap"): 0.5532
- Array Heatmap value (peptide array signal) (BAZ2B; BAZ2B, sheet "Array Heatmap"): 0.4634
- Array Heatmap value (peptide array signal) (KDM5A (1); KDM5A (1), sheet "Array Heatmap"): 0.4646
- Array Heatmap value (peptide array signal) (PHF23; PHF23, sheet "Array Heatmap"): 0.5596
- Array Heatmap value (peptide array signal) (MLL5; MLL5, sheet "Array Heatmap"): 0.5781
- Array Heatmap value (peptide array signal) (TRIM66 (PB); TRIM66 (PB), sheet "Array Heatmap"): 0.5876
- Array Heatmap value (peptide array signal) (ING3; ING3, sheet "Array Heatmap"): 0.4698
- Array Heatmap value (peptide array signal) (AIRE (PP); AIRE (PP), sheet "Array Heatmap"): 0.4291
- Array Heatmap value (peptide array signal) (PHF8; PHF8, sheet "Array Heatmap"): 0.3966
- Array Heatmap value (peptide array signal) (KDM5A (3); KDM5A (3), sheet "Array Heatmap"): 0.5345
- Array Heatmap value (peptide array signal) (PHF13; PHF13, sheet "Array Heatmap"): 0.6202
- Array Heatmap value (peptide array signal) (DPF2 (PPC2W2); DPF2 (PPC2W2), sheet "Array Heatmap"): 0.6848
- Array Heatmap value (peptide array signal) (RAG2; RAG2, sheet "Array Heatmap"): 0.2554
- Array Heatmap value (peptide array signal) (BPTF (PB); BPTF (PB), sheet "Array Heatmap"): 0.3509
- Array Heatmap value (peptide array signal) (ING5; ING5, sheet "Array Heatmap"): 0.355
- Array Heatmap value (peptide array signal) (CHD5 (PPCC); CHD5 (PPCC), sheet "Array Heatmap"): 0.5364
- Array Heatmap value (peptide array signal) (ING1; ING1, sheet "Array Heatmap"): 0.559
- Array Heatmap value (peptide array signal) (ING4; ING4, sheet "Array Heatmap"): 0.4485
- Array Heatmap value (peptide array signal) (PHRF1 (RP); PHRF1 (RP), sheet "Array Heatmap"): 0.5109
- Array Heatmap value (peptide array signal) (ING2; ING2, sheet "Array Heatmap"): 0.622
- Array Heatmap value (peptide array signal) (CHD5 (PCC); CHD5 (PCC), sheet "Array Heatmap"): 0.76
- Array Heatmap value (peptide array signal) (KDM7A; KDM7A, sheet "Array Heatmap"): 0.3293
- Array Heatmap value (peptide array signal) (TAF3; TAF3, sheet "Array Heatmap"): 0.2643
- Array Heatmap value (peptide array signal) (MORC3 (CW); MORC3 (CW), sheet "Array Heatmap"): 0.4815
